Source: PubChem BioAssay (NCI)
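Method: 48-hour compound exposure of cells in 96-well plates, five concentrations, linear interpolation of endpoints. The concentration for full growth arrest is given as TGI.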

Legend:
Assay in all cases: DTP human tumour cell line panel, 48 h
SK-OV-3 ovarian = system: SK-OV-3 ovarian
HS 578T breast = system: HS 578T breast
NCI-H23 lung = system: NCI-H23 lung
SK-MEL-5 melanoma = system: SK-MEL-5 melanoma
OVCAR-5 ovarian = system: OVCAR-5 ovarian
RPMI-8226 leukemia = system: RPMI-8226 leukemia
NCI-H460 lung = system: NCI-H460 lung
MDA-N = system: MDA-N
SR leukemia = system: SR leukemia
A498 renal = system: A498 renal

| Structure (SMILES) | TGI (SK-OV-3 ovarian) | TGI (HS 578T breast) | TGI (NCI-H23 lung) | TGI (SK-MEL-5 melanoma) | TGI (OVCAR-5 ovarian) | TGI (RPMI-8226 leukemia) | TGI (NCI-H460 lung) | TGI (MDA-N) | TGI (SR leukemia) | TGI (A498 renal) |
| --- | --- | --- | --- | --- | --- | --- | --- | --- | --- | --- |
| CC[C@H](C)C1=C(O)[N@+]2([O-])Oc3ccc(-c4c(O)c(O)c(-c5ccc(O)cc5)c(OC(C)=O)c4OC(C)=O)cc3O[C@]2([C@@H](C)CC)C(=O)N1O | 48 µM | > 50 µM | > 50 µM | > 50 µM | > 50 µM | 29.9 µM | > 50 µM | > 50 µM | > 50 µM | > 50 µM |
| CN(C)c1cccc2c1C(=O)C=CC21CCc2ccc(N(C)C)c3c(N(C)C)ccc1c23 (centres undefined) | 27 µM | 66.8 µM | 37.4 µM | 30.1 µM | 49.6 µM | 58.6 µM | 28.7 µM | 28.6 µM | 56.5 µM | 15.3 µM |
| Nc1c2c(nc3ccccc13)-c1ccccc1NCCC2 | > 100 µM | > 100 µM | > 100 µM | 28.6 µM | > 100 µM | 58.5 µM | 38 µM | 39 µM | > 100 µM | 55.5 µM |
| C=CCc1cc(C(Cc2ccccc2)NC(C)C)cc(OCc2ccccc2)c1OCc1ccccc1 (centres undefined) | 27 µM | 37.1 µM | 33.8 µM | 30.6 µM | 33.2 µM | 30.9 µM | 28.5 µM | 25.8 µM | 28.5 µM | 29.2 µM |
| NC(Cc1ncccn1)C(=O)O (centres undefined) | > 100 µM | > 100 µM | > 100 µM | > 100 µM | > 100 µM | > 100 µM | > 100 µM | > 100 µM | > 100 µM | > 100 µM |
| CC(C)(C)OC(=O)CN1CCN(CC(=O)N2CCN(C(=O)OCc3ccccc3)CC2)CCN(CC(=O)OC(C)(C)C)CCN(CC(=O)N2CCN(C(=O)OCc3ccccc3)CC2)CC1 | 16.5 µM | 5.67 µM | 12.5 µM | 3.92 µM | 25.8 µM | 2.91 µM | 6.98 µM | 7.65 µM | 1.75 µM | 35.7 µM |
| O=S(=O)(/N=C(\NO)Nc1ccc(Cl)cc1)c1ccccc1 | > 100 µM | 34.6 µM | > 100 µM | 21.8 µM | 56.6 µM | 56.8 µM | > 59.3 µM | 27.7 µM | 9.91 µM | 27.3 µM |
| CC(C)(C)C1=CC(=C2C=Cc3ccccc3O2)C=C(C(C)(C)C)C1=O | > 42.4 µM | > 47.6 µM | 30.8 µM | 13.9 µM | 15.3 µM | 5.45 µM | 4.04 µM | 7.39 µM | 5.35 µM | 16.4 µM |
| CSc1c(CC(=O)Nc2ccc(Cl)cc2)n(Cc2ccccc2)c2ccccc12 | > 100 µM | 69.4 µM | > 100 µM | > 100 µM | > 100 µM | > 100 µM | > 100 µM | > 100 µM | > 100 µM | 25.9 µM |
| CCN(CC)CCCNc1[nH]ncc2c(C)c3nc4ccc(OC)cc4c3cc12 | 5.33 µM | 4.25 µM | 1.97 µM | 2.83 µM | 6.66 µM | 2.69 µM | 4.66 µM | 1.93 µM | 1.76 µM | 6.35 µM |
| N#C/C(N)=C(\C#N)N=CNc1ccc(N)cc1 | > 100 µM | > 100 µM | > 100 µM | > 100 µM | > 100 µM | > 100 µM | > 100 µM | > 100 µM | > 100 µM | > 100 µM |
| O=C1CCCCC/C1=C\c1ccccc1 | > 100 µM | > 100 µM | > 100 µM | > 100 µM | > 100 µM | > 100 µM | > 100 µM | > 100 µM | > 100 µM | > 100 µM |
| COC(=O)/C=C\C(C#N)(C#N)N=Cc1sccc1C | 34.1 µM | 37.1 µM | 25.3 µM | 4.78 µM | 14.4 µM | > 24.6 µM | 31.4 µM | 15.1 µM | > 100 µM | 27.9 µM |
| O=C(O)c1ccc(Nc2nc3cc(C(F)(F)F)ccc3n3cccc23)cc1 | > 100 µM | > 100 µM | > 100 µM | 38.8 µM | > 100 µM | 68.6 µM | 38.7 µM | > 100 µM | 41.6 µM | > 100 µM |
| O=[N+]([O-])/C(C(Cl)=C(Cl)Cl)=C(\N1CCCCC1)n1nnc2ccccc21 | 68.2 µM | 81.8 µM | 38.8 µM | 32.7 µM | 36.9 µM | 38.6 µM | 47.6 µM | 44.1 µM | 58.4 µM | 39.1 µM |
| CCOC(=O)c1cc(C2CCN(c3ccccc3)C2=O)c(C(=O)/C=C(/C)N)[nH]1 (centres undefined) | 50.7 µM | 46.3 µM | > 100 µM | > 100 µM | > 100 µM | > 100 µM | > 100 µM | > 100 µM | > 100 µM | > 100 µM |

| Structure (SMILES) | TGI (SK-OV-3 ovarian) | TGI (HS 578T breast) | TGI (NCI-H23 lung) | TGI (SK-MEL-5 melanoma) | TGI (OVCAR-5 ovarian) | TGI (RPMI-8226 leukemia) | TGI (NCI-H460 lung) | TGI (MDA-N) | TGI (SR leukemia) | TGI (A498 renal) |
| --- | --- | --- | --- | --- | --- | --- | --- | --- | --- | --- |
| CN(C(=O)Cc1cc(Cl)c(Cl)cc1NC(=O)CN)[C@H]1CCCC[C@@H]1N1CCCC1 | > 100 µM | 64 µM | > 100 µM |  | > 100 µM | 94 µM | > 100 µM | 31.7 µM | 77.8 µM | 51.2 µM |
| CC[P+]1(c2ccccc2)[C@@H](C)CC[C@@H]1C | > 100 µM | > 100 µM | > 100 µM | > 100 µM | > 100 µM | > 100 µM | > 100 µM | > 100 µM | > 100 µM | > 100 µM |
| Cc1ccc(S(=O)(=O)N/N=C2/CC3CCC4CC2CC34)cc1 (centres undefined) | > 100 µM | > 100 µM | > 100 µM | > 100 µM | > 100 µM | > 100 µM | > 100 µM | > 100 µM | > 100 µM | > 100 µM |
| Cc1nc2[nH]ncn2c(=O)c1CCO | > 10 µM | > 10 µM | > 10 µM | > 10 µM | > 10 µM | > 10 µM | > 10 µM | > 10 µM | > 10 µM | > 10 µM |
| C=CCOc1ccccc1C1(O)c2ccccc2C2=NCCCN21 (centres undefined) | > 100 µM | > 100 µM | > 100 µM | > 100 µM | > 100 µM | > 100 µM | > 100 µM | > 100 µM | > 100 µM | > 100 µM |
| NC(=Nc1cccc(Cl)c1)c1ccccc1N | > 100 µM | > 100 µM | > 100 µM | > 100 µM | > 100 µM | > 100 µM | > 100 µM | > 100 µM | > 100 µM | > 100 µM |
| COc1cc(NC=C2C(=O)OC(C)(C)OC2=O)c(OC)c(C)c1OC | > 100 µM | > 100 µM | > 100 µM | > 100 µM | > 100 µM | > 100 µM | > 100 µM | > 100 µM | > 100 µM | > 100 µM |
| CC1CN=C(c2cccc(-c3nc(-c4cccc(C5=NCC(C)N5)c4)nc(N(C)C)n3)c2)N1 (centres undefined) | 4.61 µM | 17.1 µM | 7.77 µM | 7.93 µM | 10.2 µM | 6.87 µM | 4.38 µM | 4.08 µM | 1.96 µM | 5.99 µM |
| COC(=O)/C=C(\S/C=C(/c1ccccc1)N1CCn2c(C(=O)c3ccccc3)c(C(=O)OC)c(C(=O)OC)c21)C(=O)OC | > 10 µM | > 10 µM | > 10 µM | > 10 µM | > 10 µM | 7.49 µM | > 10 µM | > 10 µM | > 10 µM | > 10 µM |
| CCCN1C(=O)/C(=C\c2ccc(OC)c(OC)c2)SC1=Nc1ccccc1 | > 100 µM | > 100 µM | > 100 µM | > 100 µM | > 100 µM | > 100 µM | > 100 µM | > 100 µM | > 100 µM | > 100 µM |
| CCOC(=O)CN1CC(C2=C(O)CN(CC(=O)OCC)C2=O)=CC1=O | > 100 µM | > 100 µM | > 100 µM | > 100 µM | > 100 µM | > 100 µM | > 100 µM | > 100 µM | > 100 µM | > 100 µM |
| COc1ccc2c3c1OC1C34CCN(C)C(C2)C4=CC(I)C1(OC)OC (centres undefined) | 28.9 µM | 79.7 µM | 21.1 µM | 25.6 µM | 38.4 µM | 14.2 µM | 28 µM | 18.8 µM | 10.2 µM | 56.7 µM |
| COc1ccc(N2C(=O)C3c4[nH]c5ccc(F)cc5c4C4CCC(C(C)(C)C)CC4C3C2=O)cc1 (centres undefined) | > 10 µM | > 10 µM | > 10 µM | > 10 µM | > 10 µM | > 10 µM | > 10 µM | > 10 µM | > 10 µM | > 10 µM |
| COP(=O)(OC)/C(=C/c1cn(C(c2ccccc2)(c2ccccc2)c2ccccc2)cn1)NC=O | 90.8 µM | 43.2 µM | 41.2 µM | 27.5 µM | 38.2 µM | > 100 µM | 34.9 µM | 51.4 µM | > 100 µM | 32 µM |
| CCN(CC)c1ccc2cc(C(=O)Nc3ccc(C)cc3)c(=N)oc2c1 | > 100 µM | > 100 µM | > 100 µM | > 100 µM | > 100 µM | > 100 µM | > 100 µM | > 100 µM | > 100 µM | > 100 µM |
